{
  "source": "paper PMC7177456",
  "about": "“A Peptidomimetic Fluorescent Probe to Detect the Trypsin β2 Subunit of the Human 20S Proteasome” (International Journal of Molecular Sciences, 2020)",
  "key": {"[1]": {"test_system": "trypsin-like subunit of the 20S proteasome", "details": "cited from earlier work; for selectivity for the trypsin subunit / selectivity for trypsin-like specificity: introduction; for selectivity for trypsin-like specificity: commercially available substrates, no reference given", "text": "Table 1 Overview of the fluorogenic substrates of the trypsin-like subunit of the 20S proteasome. | column: Km (µM); kcat (s^−1); kcat/Km (M^−1 s^−1) || The aim of this work is to develop a new substrate to assay the trypsin-like specificity of the human 20S proteasome that is created by DAPEG building blocks, which are N-substituted functionalized derivates of 3-diaminopropionic acid (Figure 1). The substrate preferences of the β2 subunit have been previously examined. Harris and coworkers described the development of new substrates selected via combinatorial library screening. The substrate peptides were labeled with 7-amino-4-carbamoylmethylcoumarin (ACC) as a reporter moiety, and a specific sequence of the β2 subunit, Ac–Glu– ..."}, "[2]": {"test_system": "chymotrypsin subunit (β5) of the 20S proteasome in human urine", "assay": "Proteasome activity in human urine with the β5 substrate", "assay_type": "biochemical", "method": "All urine samples were purchased from St. Vincent de Paul Hospital in Gdynia, Poland (contract no. JN/777/R720/08.11.17). All methods and procedures were performed in accordance with this contract agreement. Participants were informed about the study and sample collection, and their written consent was collected. […] Therefore, the samples were considered unnamed. The samples of human urine were taken during mid-urination and kept for 48 h at −80 °C until required. All samples used for assay development were taken from healthy volunteers (n = 5), and oncological samples were obtained from patients diagnosed with bladder cancer (n = 8).\nIn parallel, the urine samples were analyzed using the previously developed substrate ABZ–Val–Val–Ser–Tyr–Ala–Met–Gly–Tyr(3-NO2)–NH2 [21] in two systems: one with the artificial activator SDS at 0.01% and the second without any SDS. The fluorescence of the system was recorded over time. The same conditions for excitation and emission were used as above. All measurements were performed in triplicate.\nThe resulting data were analyzed using Graphpad Prism version 6.0 software (GraphPad Software Inc., La Jolla, CA, USA). All fluorescent measurements were performed in triplicate and represented by the mean ± standard deviation (SD). A two-tailed Mann–Whitney test was applied for the statistical analysis (p < 0.0001)."}, "[3]": {"test_system": "neutrophil-related proteases / neutrophil serine protease 4 (NSP4)", "details": "ref [19], cited from earlier work", "text": "Recently, we established a new method for the selection and synthesis of artificial fluorogenic substrates composed of DAPEG residues (Figure 1). For the screening of 18 libraries, we created a series of compounds based on the neutrophil serine protease 4 (NSP4) substrate sequence (ABZ–X4–X3–X2–Arg–ANB–NH2) diversified in positions X4 to X2 with DAPEG, resulting in a total of almost 6000 compounds."}, "[4]": {"target": "T1, human 20S proteasome, trypsin-like (β2) subunit (Homo sapiens, UniProt P49720+Q99436)", "T1 construct": "purchased Boston Biochem (Cambridge, MA, USA)", "assay": "Kinetic parameters of substrate 1 with human 20S proteasome (allosteric fit)", "assay_type": "biochemical", "details": "SDS 0.01%, substrate 1", "method": "For enzymatic studies, the human 20S proteasome, 26S proteasome, and 20S immunoproteasome were purchased from Boston Biochem (Cambridge, MA, USA). The 20S proteasome concentration for library deconvolution was in the nanomolar range, and this proteasome entity was used for the main study. Deconvolution of the peptide libraries was performed using the iterative solution method. Dimethyl sulfoxide (DMSO) was used as a solvent for preparation of the stock solution (5 mg/mL) for each lyophilized sub-library. This stock solution was diluted ten times using an assay buffer (50 mM Tris/HCl buffer (pH 8.2)) for the 20S and 20Si proteasome, and for 26S, the buffer was supplemented with 40 mM KCl, 2 mM EDTA, 1 mM DTT, 100 µM ATP, and 50 µg/mL bovine serum albumin (BSA). The volume composition of each well of the 96-well plate was: 20 µL library, 160 µL assay buffer, and 20 µL 20S proteasome solution at a concentration of 1.07 × 10^−9 M. Absorbance or fluorescence measurements were performed on a FluoroStar OMEGA multimode microplate reader (BMG, Ortenberg, Germany). Absorbance increases were monitored at 410 nm. The excitation and emission wavelengths were 320 and 450 nm respectively, for the ABZ/ANB. Enzymatic hydrolysis of the peptide was performed in the assay buffer at 37 °C and continued over 60 min.\nThe procedures to determine the kinetic constants Km and kcat are described below. Increasing concentrations of substrate 1 ranged from 1 × 10^−6 to 2 × 10^−5 M. In parallel, a kinetic assay with the artificial activator SDS at 0.01% was also performed. The data were fitted to an allosteric plot using GraphPad prism v6.0 (GraphPad Software Inc., La Jolla, CA, USA). The specificity constants (kcat/ Km) were calculated from the kcat and Km values. Measurements were performed using a 20S proteasome concentration of 1.07 × 10^−9 M. Three to five measurements were performed for each compound dilution (the systematic error, defined as the standard deviation, never surpassed 20%). The initial hydrolysis rates were used as the amount of enzymatic activity for the tested compounds. All kinetic study details and kinetic parameters have been described elsewhere."}, "[5]": {"test_system": "20S proteasome", "assay": "Inhibitory studies: cleavage of substrate 1 in the presence of selective proteasome inhibitors", "assay_type": "biochemical, human", "details": "30 min preincubation at 37 °C, 20S 1.07 × 10^−9 M, substrate 1.34 × 10^−5 M, triplicate", "text": "A black, 96-well flat-bottomed microplate (Brand GMBH, Wertheim, Germany) was used for the inhibitory studies. Two inhibitors, carfilzomib (a selective inhibitor of the β5 subunit of the 20S proteasome) and epoxomicin, were purchased from Merck (Darmstadt, Germany) and used at final concentrations of 1.15 × 10^−6 M and 5.0 × 10^−5 M, respectively. The β2 inhibitor, PR671A [20], and the β1 inhibitor, NCOO1 [21], were used at a concentration of 5 × 10^−6 M. These reagents were kindly provided by Alexei Kisselev from Dartmouth University (Dartmouth, NH, USA). The concentration of 20S proteasome was 1.07 × 10^−9 M. The buffered proteasome solution was mixed with 10 µL inhibitor solution. This mixture was incubated for 30 min at 37 °C. After this period, the substrate solution was added at a concentration of 1.34 × 10^−5 M, and the fluorescence was measured over time at 320 nm excitation and 450 nm emission wavelengths. All measurements were performed in triplicate."}},
  "note": "Like-named read-outs stand apart in the source and are kept apart here. Non-standard residues stand in square brackets, D forms with d. *: point of attachment. ACC = NC(=O)Cc1cc(=O)oc2cc(N*)ccc12; AMC = Cc1cc(=O)oc2cc(N*)ccc12; hSer = N[C@@H](CCO)C(=O)O; Boc = CC(C)(C)OC(=O)*",
  "data": [
    {"compound": "Ac-[dR][hSer]TR-{ACC}", "values": [
      {"measurement": "selectivity for the trypsin subunit", "setting": "[1]; ref [18]", "result": "moderate selectivity at higher proteasome concentrations"},
      {"measurement": "Km", "setting": "[1]; ref [18]", "result": "9.43 ± 0.82", "unit": "µM"},
      {"measurement": "kcat", "setting": "[1]; ref [18]", "result": "2.84 ± 0.22", "unit": "s⁻¹"},
      {"measurement": "kcat/Km", "setting": "[1]; ref [18]", "result": "301,005 ± 28,471 M^−1 s^−1"},
      {"measurement": "kcat/Km", "setting": "[1]; ref [18], listed as Ac–DArg–Hse–Thr–Arg–ACC", "result": "301,005 M^−1 s^−1"}
    ]},
    {"compound": "ABZ–Val–Val–Ser–Tyr–Ala–Met–Gly–Tyr(3-NO2)–NH2 [previously developed substrate]", "values": [
      {"measurement": "fluorescence increase, healthy samples", "setting": "[2]; healthy urine, all systems (with and without SDS), n = 5", "result": "no visible fluorescence increase"},
      {"measurement": "bladder cancer samples with fluorescence increase", "setting": "[2]; with SDS 0.01%, 8 bladder cancer samples, triplicate", "result": "seven systems (1–5, 7, and 8)"},
      {"measurement": "fluorescence increase rate, sample N° 6", "setting": "[2]; with SDS 0.01%, bladder cancer sample N° 6", "result": "insignificant"},
      {"measurement": "bladder cancer samples with visible fluorescence increase", "setting": "[2]; without SDS, 8 bladder cancer samples, 320/450 nm, triplicate", "result": "2 out of the 8"}
    ]},
    {"compound": "ABZ–Dap(O2(Cbz))–Dap(Cbz)–Dap(GO1)–Arg–ANB–NH2", "values": [
      {"measurement": "specificity constant (kcat/Km)", "setting": "[3]; NSP4 substrate-based library", "result": 130000, "unit": "M⁻¹ s⁻¹"},
      {"measurement": "selectivity towards neutrophil-related proteases", "setting": "[3]", "result": "high levels of selectivity"}
    ]},
    {"compound": "CCCCCCCCCCCCOS(=O)(=O)[O-].[Na+]", "note": "[SDS, sodium dodecyl sulfate]", "values": [
      {"measurement": "effect on β2 subunit activity of the 20S proteasome", "setting": "[4]", "result": "not significantly altered"}
    ]},
    {"compound": "CC(C)C[C@H](NC(=O)[C@H](CCc1ccccc1)NC(=O)CN1CCOCC1)C(=O)N[C@@H](Cc1ccccc1)C(=O)N[C@@H](CC(C)C)C(=O)[C@@]1(C)CO1", "note": "[carfilzomib]", "values": [
      {"measurement": "effect on cleavage of substrate 1", "setting": "[5]; carfilzomib (β5) 1.15 × 10^−6 M", "result": "a slight activation of the cleavage rate"}
    ]},
    {"compound": "ABZ–Val–Val–Ser–GNF–Ala–Met–Gly–Tyr(3-NO2)–NH2", "values": [
      {"measurement": "Km", "setting": "[1]; ref [21]", "result": "4.24 ± 0.87", "unit": "µM"},
      {"measurement": "kcat", "setting": "[1]; ref [21]", "result": "8.41 ± 0.57", "unit": "s⁻¹"},
      {"measurement": "kcat/Km", "setting": "[1]; ref [21]", "result": "1,983,100 ± 2754 M^−1 s^−1"}
    ]},
    {"compound": "Boc-Leu-Arg-Arg-{AMC} [commercially available 20S proteasome substrate]", "values": [
      {"measurement": "selectivity for trypsin-like specificity", "setting": "[1]", "result": "significant selectivity"},
      {"measurement": "kcat/Km", "setting": "[1]; ref [22]", "result": "<500", "unit": "M⁻¹ s⁻¹"}
    ]},
    {"compound": "Ac–βAla–Met(O)2–Thr–Arg–ACC", "values": [
      {"measurement": "selectivity for the trypsin subunit", "setting": "[1]; ref [18]", "result": "most selective"},
      {"measurement": "Km", "setting": "[1]; ref [18]", "result": "50.9 ± 2.99", "unit": "µM"},
      {"measurement": "kcat", "setting": "[1]; ref [18]", "result": "2.23 ± 0.07", "unit": "s⁻¹"},
      {"measurement": "kcat/Km", "setting": "[1]; ref [18]", "result": "43,790 ± 3233 M^−1 s^−1"},
      {"measurement": "kcat/Km", "setting": "[1]; ref [18], listed as Ac–βAla–Met(O2)–Thr–Arg–ACC", "result": "43,790 M^−1 s^−1"}
    ]},
    {"compound": "Ac-Leu-Arg-Arg-{AMC} [commercially available 20S proteasome substrate]", "values": [
      {"measurement": "selectivity for trypsin-like specificity", "setting": "[1]", "result": "significant selectivity"}
    ]},
    {"compound": "CC[C@H](C)[C@H](NC(=O)[C@H]([C@@H](C)CC)N(C)C(C)=O)C(=O)N[C@H](C(=O)N[C@@H](CC(C)C)C(=O)[C@@]1(C)CO1)[C@@H](C)O", "note": "[epoxomicin]", "values": [
      {"measurement": "effect on cleavage of substrate 1", "setting": "[5]; epoxomicin (general inhibitor) 5.0 × 10^−5 M", "result": "proteolytic suppression of substrate 1"}
    ]}
  ]
}
